For orientation: AC50 means the concentration giving half of the maximal activity seen.

Data on 68 molecules can be found in PubChem BioAssay AID743417 (Broad Institute, 2014).

Each structure is given as a SMILES string. Where “and” joins values, the source holds several entries; their conditions need not be identical. Equal entries are not always repeated. Results filed as inconclusive are left out. Some results are limits rather than exact numbers.

For the assay, the system named is Clone20 osteoblast Shn3 3'UTR firefly luciferase, 24 h. Nature of the assay: Shn3 3'UTR reporter inhibitors, dose response, cell-based, Clone20 osteoblasts, luminescence, dry powder, set 2 (AID 743417).

With `CN(CC(=O)Nc1ccccc1Cl)C(=O)c1cccc(S(=O)(=O)N2CCN(c3ccccc3)CC2)c1`, the AC50 was 3.84 µM.

With `CC(C)(C)C(=O)Nc1ccc(NC(=O)c2ccco2)nc1`, the AC50 was 1.17 µM.

Turning to `CCOc1ccc2nc3cc(NCc4ccc(OC)cc4)ccc3c(N)c2c1`, the AC50 is 6.69 µM.

As for `CC(C)(C)C(=O)Nc1cc(S(=O)(=O)N2CCCCC2)ccc1N1CCCCC1`, the AC50 was 23.1 µM.

`O=[N+]([O-])c1cccnc1S(=O)(=O)c1ccccc1`: the AC50 is 4.79 µM.

For `CC(=O)N1CCc2c(sc(NC(=O)c3ccc([N+](=O)[O-])o3)c2C(N)=O)C1`, the AC50 was 1.85 µM.

Turning to `Cc1ccccc1C(=O)N1CCN(c2ccc(NC(=O)c3ccc4c(c3)OCCO4)cc2)CC1`, the AC50 is 2.17 µM.

`CC(C)CC(N)c1csc(NC(=O)c2cc(C(C)(C)C)nn2Cc2ccccc2)n1` (stereo not drawn): the AC50 is 4.85 µM.

In the case of `Oc1ccc(-c2csc(Nc3cccc4ccccc34)n2)cc1O`, the AC50 is 1.58 µM.

As to `Oc1c(C(c2ccccc2Cl)N2CCCC2)ccc2cccnc12` (stereo not drawn), the AC50 is 5.77 µM.

As to `COCOCCn1cc(CN2CCS(=O)(=O)N(Cc3ccc(-c4ccc(Cl)c(Cl)c4)cc3)C(C(C)C)C2=O)nn1` (stereo not drawn), the AC50 was 1.35 µM.

On to `S=C(NCCc1ccccc1)Nc1cccc2cnccc12`, for which the AC50 is 0.922 µM.

For the molecule `CCN(CC)c1ccc(CNc2nc3ccccc3n2CCN2CCCCC2)cc1`, the AC50 was 2.64 µM.

For `O=C(Oc1c(CN2CCOCC2)cc(Cl)c2cccnc12)c1ccccc1Cl`, the AC50 was 4.59 µM.

Consider `CC1=C(CO)C(=O)OC([C@@H](C)C2CC[C@H]3C4C[C@H]5O[C@]56[C@@H](O)C=CC(=O)[C@]6(C)C4CC[C@]23C)C1` (stereo partly drawn), for which the AC50 is 0.674 µM.

Turning to `Cc1cc(C)n2nc(SCC(=O)c3cc(C)n(-c4cc(C)on4)c3C)nc2n1`, the AC50 was 2.46 µM.

Take `COc1ccccc1NC(=O)Cc1nn(C)c(=O)c2ccccc12`: the AC50 was 1.97 µM.

On to `COc1cc(NC(=O)COc2cc(O)c3c(c2)OC(C)(C)CC3=O)cc(OC)c1OC`, for which the AC50 is 0.354 µM.

`C=CCNc1nc(-c2ccccn2)nnc1-c1ccccc1`: the AC50 is 3.17 µM.

As to `Oc1cccc(C(Nc2nccs2)c2ccc3cccnc3c2O)c1` (stereo not drawn), the AC50 is 1.67 µM.

For `Cn1c(=O)c2c(nc(NCc3ccco3)n2CCc2ccccc2)n(C)c1=O`, the AC50 was 2.34 µM.

Regarding `CC(=O)c1ccc(N2CCN(S(=O)(=O)c3ccc(-c4cnc(C5CC5)o4)cc3)CC2)cc1`, the AC50 is 5.95 µM.

As to `O=C(Nc1cccc(F)c1)c1cc(S(=O)(=O)NCCC2=CCCCC2)ccc1F`, the AC50 is 4.16 µM.

As to `CCCCn1c(-c2nonc2NC(=O)c2ccccc2Cl)nc2ccccc21`, the AC50 is 1.39 µM.

Take `O=C1C(=C(c2ccccc2)N2CCOCC2)Cc2ccccc21`: the AC50 is 0.999 µM.

On to `COc1ccc(CC2NCC(O)C2OC(C)=O)cc1` (stereo not drawn), for which the AC50 is less than 0.26 µM.

Consider `COc1ccccc1NC(=O)Cn1c(C)cc(=O)c2cccc(OC)c21`, for which the AC50 was 3.16 µM.

`CCCC(=O)NC(c1ccc(Cl)cc1)c1ccc2cccnc2c1O` (stereo not drawn): the AC50 is 0.937 µM.

In the case of `Cc1cc(C)n(-c2ccc3cccc(NS(C)(=O)=O)c3n2)n1`, the AC50 was 1.32 µM.

On to `O=C(c1cc2sccc2n1Cc1ccc(F)cc1)N1CCN(c2nc3ccccc3s2)CC1`, for which the AC50 is 1.36 µM.

For the molecule `CCOC(=O)N1CCN(C(=O)c2ccc3c(c2)N(Cc2ccc(C)cc2)CCS3)CC1`, the AC50 was 6 µM.

On to `O=C(Nc1ccc([N+](=O)[O-])cc1)C(=O)Nc1cccc(C(=O)O)c1`, for which the AC50 is 4.21 µM.

On to `OC1(c2ccc(OC(F)F)cc2)CSC(=Nc2cccnc2)N1C1CC1` (stereo not drawn), for which the AC50 is 5.4 µM.

For `Cc1cccc(CSc2cccc3cccnc23)c1`, the AC50 is 2.54 µM.

For `O=C1S/C(=C\c2ccc(N3CCOCC3)o2)C(=O)N1Cc1c(F)cccc1Cl`, the AC50 is 6.72 µM.

In the case of `CC(C)(C)OC(=O)NCc1ccc(CNC(=O)c2nc[nH]c2C(=O)NCc2ccc(CNC(=O)OC(C)(C)C)cc2)cc1`, the AC50 was 5.89 µM.

Turning to `CCCC(=O)NC(c1ccc(OC)cc1)c1ccc2cccnc2c1O` (stereo not drawn), the half-maximal activity concentration (AC50) is 1.18 µM.

Consider `O=[N+]([O-])c1ccc2ncnc(N3CCN(Cc4ccc5c(c4)OCO5)CC3)c2c1`, for which the AC50 was 2.73 µM.

Regarding `COc1ccc(CNC(=O)c2cccc3c(-c4cccnc4)coc23)cc1OC`, the AC50 was 0.9 µM.

Consider `CCOc1cc(/C=C\[N+](=O)[O-])ccc1OCC(=O)Nc1ccccc1C`, for which the AC50 is less than 0.26 µM.

As to `CCOc1cc(/C=C2\C(=O)ON=C2C)ccc1OCc1ccccc1`, the AC50 was 10.4 µM.

In the case of `CCCCNS(=O)(=O)c1ccc(S(=O)(=O)NCc2ccncc2)cc1`, the AC50 was 2.4 µM.

Take `COc1ccc(CCNc2ncnc3sccc23)cc1OC`: the half-maximal activity concentration (AC50) is less than 0.26 µM.

On to `CCc1ccc(CNC(=O)c2cc3c(C)nc4ccccc4c3o2)cc1`, for which the concentration at half-maximal activity (AC50) was 2.02 µM.

With `COc1ccc2c(CC(=O)OCC(=O)N(C)c3c(N)n(Cc4ccccc4)c(=O)[nH]c3=O)coc2c1`, the AC50 was 21.2 µM.

Turning to `C[C@H](NC(=O)c1nc[nH]c1C(=O)NCc1ccc(CNC(=O)OC(C)(C)C)cc1)c1ccccc1`, the AC50 was 11.7 µM.

`COc1ccc(-c2nc(NC(=O)C3CC(=O)N(c4ccc5c(c4)OCCO5)C3)sc2C)cc1` (stereo not drawn): the AC50 was 5.24 µM.

As to `O=S1(=O)C=C(Sc2nc3cc(Cl)ccc3o2)c2ccccc21`, the AC50 was less than 0.26 µM.

Regarding `COc1cc(OC)c(OC)cc1CCC(C)NCCC(c1ccccc1)c1ccccc1` (stereo not drawn), the AC50 was 3.99 µM.

`CCOC(=O)C1(CCOc2ccccc2)CCN(Cc2ccc(OC)c(COC)c2)CC1`: the AC50 was 3.87 µM.

In the case of `Cc1ccccc1OCCOC(=O)c1cc(S(=O)(=O)N2CCCCC2)ccc1N1CCOCC1`, the AC50 is 3.79 µM.

As to `CCCCc1ccc(NC(=O)C(=O)NCCN2CCN(Cc3ccc([N+](=O)[O-])cc3)CC2)cc1`, the AC50 is 1.13 µM.

Turning to `Cc1ccc2nc(-c3ccc(O)c(O)c3)cn2c1`, the AC50 is 4.2 µM.

As for `CCOc1cc(/C=C2/C(=O)ON=C2C)ccc1OCc1ccccc1F`, the AC50 was 6.95 µM.

`Oc1ccc(CN2CCCc3ccccc32)c2cccnc12`: the AC50 is 5.4 µM.

`CCC(=O)OCCNc1cc(Sc2nccn2C)c2nonc2c1[N+](=O)[O-]`: the AC50 is 1.55 µM.

On to `C=C(CN(C)C)C(=O)c1ccc(C)cc1C`, for which the AC50 is 0.77 µM.

As to `CCN1CCN(Cc2ccc(NC(=O)c3cc(NC(=O)c4cc5cccc(OC)c5o4)cc(OC)c3)cc2C(F)(F)F)CC1`, the AC50 was 10.2 µM and 9.77 µM.

For `CCCCCCCN1C(Nc2ccccc2)=NC[C@@H]1Cc1ccccc1`, the AC50 was 4.82 µM.

`CN(C)c1ccc(C=Cc2ccnc3c(O)cccc23)cc1`: the AC50 is 1.43 µM.

As to `O=c1oc2ccccc2cc1-c1cn2ccccc2n1`, the AC50 is 3.64 µM.

For the molecule `Cc1ccc(CS(=O)(=O)c2ncc(Cl)c(C(=O)Nc3nnc(C(C)C)s3)n2)cc1`, the AC50 is 1.52 µM.

With `Cc1cc(NC(c2ccc(Cl)cc2)c2ccc3cccnc3c2O)no1` (stereo not drawn), the AC50 is 1.05 µM.

`CC(NCc1ccc(OCc2ccc(Cl)cc2)cc1)C(O)c1ccccc1` (stereo not drawn): the AC50 is 10.9 µM.

With `COc1ccccc1NC(=O)Nc1nc(C(N)Cc2ccc(C(F)(F)F)cc2)cs1` (stereo not drawn), the AC50 is 10.3 µM.

Turning to `COc1ccc(N2CCN(C(=O)CN3CCN(c4nc(-c5ccc(F)cc5)cs4)CC3)CC2)cc1`, the AC50 was 1.81 µM.

With `Cc1ccc(C(=O)N2c3ccccc3N(Cc3ccccc3)C(=O)C2(C)C)cc1`, the AC50 was 6.92 µM.

`CC(=O)N1c2ccc(S(=O)(=O)N3CCC(C(=O)N4CCN(c5cc(Cl)ccc5C)CC4)CC3)cc2CC1C` (stereo not drawn): the AC50 was 3.1 µM.
